# Tested on: MV-4-11 cells
# Assay: Gene expression microarray analysis (Affymetrix PrimeView) and GSEA
# Assay type: cell-based, human
# Set-up: RFU PODN (11730768_x_at) / Fold change /veh PODN (11730768_x_at) / RFU LINC00158 (11744669_a_at) / Fold change /veh LINC00158 (11744669_a_at) / RFU DUSP10 (11751237_a_at) / Fold change /veh DUSP10 (11751237_a_at) / RFU ID3 (11757404_x_at) / Fold change /veh ID3 (11757404_x_at) / RFU PLEKHG5 (11737974_s_at) / Fold change /veh PLEKHG5 (11737974_s_at) / RFU LRRC4B (11730491_at) / Fold change /veh LRRC4B (11730491_at) / RFU GIMAP4 (11747438_a_at) / Fold change /veh GIMAP4 (11747438_a_at) / RFU KRT8 (11758183_x_at) / Fold change /veh KRT8 (11758183_x_at) / RFU CNN1 (11734310_a_at) / Fold change /veh CNN1 (11734310_a_at) / RFU VPS37D (11726825_at) / Fold change /veh VPS37D (11726825_at) / RFU C10orf10 (11716522_x_at) / Fold change /veh C10orf10 (11716522_x_at) / RFU KIR2DL2 /// KIR2DL4 /// KIR2DL5A /// KIR2DL5B /// KIR2DS1 /// KIR2DS2 /// KIR2DS3 /// KIR2DS4 /// KIR3DL3 /// KIR3DL3 /// KIR3DS1 (11738374_at) / Fold change /veh KIR2DL2 /// KIR2DL4 /// KIR2DL5A /// KIR2DL5B /// KIR2DS1 /// KIR2DS2 /// KIR2DS3 /// KIR2DS4 /// KIR3DL3 /// KIR3DL3 /// KIR3DS1 (11738374_at) / RFU C1QL1 (11718748_at) / Fold change /veh C1QL1 (11718748_at) / RFU TMPRSS4 (11747572_a_at) / Fold change /veh TMPRSS4 (11747572_a_at) / RFU HAMP (11756126_x_at) / Fold change /veh HAMP (11756126_x_at) / RFU RNFT2 (11725882_a_at) / Fold change /veh RNFT2 (11725882_a_at) / RFU NR4A2 (11747474_a_at) / Fold change /veh NR4A2 (11747474_a_at) / RFU ABCC12 (11746883_a_at) / Fold change /veh ABCC12 (11746883_a_at) / RFU TMEM136 (11760407_x_at) / Fold change /veh TMEM136 (11760407_x_at) / RFU CLDN22 /// WWC2 (11732394_at) / Fold change /veh CLDN22 /// WWC2 (11732394_at) / RFU HLA-DPB1 (11760878_x_at) / Fold change /veh HLA-DPB1 (11760878_x_at) / RFU SPINT1 (11716480_a_at) / Fold change /veh SPINT1 (11716480_a_at) / RFU GAP43 (11754022_s_at) / Fold change /veh GAP43 (11754022_s_at) / RFU A4GNT (11735810_at) / Fold change /veh A4GNT (11735810_at) / RFU PRB3 (11715151_x_at) / Fold change /veh PRB3 (11715151_x_at) / RFU TUBB4B (11761932_at) / Fold change /veh TUBB4B (11761932_at) / RFU CAPN14 (11732068_a_at) / Fold change /veh CAPN14 (11732068_a_at) / RFU TMCC2 (11721928_a_at) / Fold change /veh TMCC2 (11721928_a_at) / RFU IRGQ (11745062_a_at) / Fold change /veh IRGQ (11745062_a_at) / RFU FAM174B (11720279_a_at) / Fold change /veh FAM174B (11720279_a_at) / RFU TMPRSS4 (11748680_a_at) / Fold change /veh TMPRSS4 (11748680_a_at) / RFU FAM212B (11763350_a_at) / Fold change /veh FAM212B (11763350_a_at) / RFU PLEKHG5 (11743358_a_at) / Fold change /veh PLEKHG5 (11743358_a_at) / RFU ZSCAN30 (11745921_a_at) / Fold change /veh ZSCAN30 (11745921_a_at) / RFU CMKLR1 (11741424_a_at) / Fold change /veh CMKLR1 (11741424_a_at) / RFU LOC101060620 /// MAPK8IP1 (11723275_at) / Fold change /veh LOC101060620 /// MAPK8IP1 (11723275_at) / RFU SPTSSB (11747773_x_at) / Fold change /veh SPTSSB (11747773_x_at) / RFU PRSS12 (11739890_at) / Fold change /veh PRSS12 (11739890_at) / RFU BIN1 (11741810_x_at) / Fold change /veh BIN1 (11741810_x_at) / RFU WNT11 (11732464_a_at) / Fold change /veh WNT11 (11732464_a_at) / RFU C10orf10 (11716521_a_at) / Fold change /veh C10orf10 (11716521_a_at) / RFU C5orf56 (11738089_at) / Fold change /veh C5orf56 (11738089_at) / RFU CYB561 (11721691_x_at) / Fold change /veh CYB561 (11721691_x_at) / RFU ANKRD19P (11752326_a_at) / Fold change /veh ANKRD19P (11752326_a_at) / RFU OR2T12 /// OR2T33 /// OR2T8 (11738714_s_at) / Fold change /veh OR2T12 /// OR2T33 /// OR2T8 (11738714_s_at) / RFU VCAN (11748164_a_at) / Fold change /veh VCAN (11748164_a_at) / RFU JSRP1 (11732532_at) / Fold change /veh JSRP1 (11732532_at) / RFU KRTAP10-11 (11738290_x_at) / Fold change /veh KRTAP10-11 (11738290_x_at) / RFU MYO3A (11730013_a_at) / Fold change /veh MYO3A (11730013_a_at) / RFU EBF3 (11725865_a_at) / Fold change /veh EBF3 (11725865_a_at) / RFU CAMK2N1 (11719241_x_at) / Fold change /veh CAMK2N1 (11719241_x_at) / RFU C5orf56 (11738088_a_at) / Fold change /veh C5orf56 (11738088_a_at) / RFU OLFML3 (11715873_a_at) / Fold change /veh OLFML3 (11715873_a_at) / RFU LOC100653217 /// NTM (11731650_a_at) / Fold change /veh LOC100653217 /// NTM (11731650_a_at) / RFU MAPK11 (11762145_a_at) / Fold change /veh MAPK11 (11762145_a_at) / RFU FIZ1 (11724087_x_at) / Fold change /veh FIZ1 (11724087_x_at) / RFU OASL (11726364_x_at) / Fold change /veh OASL (11726364_x_at) / RFU SOX15 (11748057_x_at) / Fold change /veh SOX15 (11748057_x_at) / RFU CD79A (11719716_a_at) / Fold change /veh CD79A (11719716_a_at) / RFU HIST1H1D (11736915_at) / Fold change /veh HIST1H1D (11736915_at) / RFU CASKIN2 (11723855_a_at) / Fold change /veh CASKIN2 (11723855_a_at) / RFU LOC730098 (11760151_x_at) / Fold change /veh LOC730098 (11760151_x_at) / RFU OR4N2 (11742367_at) / Fold change /veh OR4N2 (11742367_at) / RFU PRRT2 (11749266_a_at) / Fold change /veh PRRT2 (11749266_a_at) / RFU SNX32 (11753110_a_at) / Fold change /veh SNX32 (11753110_a_at) / RFU CDHR5 (11726645_a_at) / Fold change /veh CDHR5 (11726645_a_at) / RFU RCAN1 (11760418_a_at) / Fold change /veh RCAN1 (11760418_a_at) / RFU FAM167A (11723789_a_at) / Fold change /veh FAM167A (11723789_a_at) / RFU FAM26E (11764081_at) / Fold change /veh FAM26E (11764081_at) / RFU ISYNA1 (11749810_s_at) / Fold change /veh ISYNA1 (11749810_s_at) / RFU ACY1 (11761880_at) / Fold change /veh ACY1 (11761880_at) / RFU 11764098_at / Fold change /veh 11764098_at / RFU SAMD14 (11745864_x_at) / Fold change /veh SAMD14 (11745864_x_at) / RFU NPB (11741838_a_at) / Fold change /veh NPB (11741838_a_at) / RFU TMPRSS6 (11731388_a_at) / Fold change /veh TMPRSS6 (11731388_a_at) / RFU KRTAP10-2 (11738614_at) / Fold change /veh KRTAP10-2 (11738614_at) / RFU ARHGAP8 /// PRR5-ARHGAP8 (11727945_x_at) / Fold change /veh ARHGAP8 /// PRR5-ARHGAP8 (11727945_x_at) / RFU KRTAP5-7 /// NADSYN1 (11734609_at) / Fold change /veh KRTAP5-7 /// NADSYN1 (11734609_at) / RFU RASL12 (11751679_a_at) / Fold change /veh RASL12 (11751679_a_at) / RFU CDKN2B (11736163_a_at) / Fold change /veh CDKN2B (11736163_a_at) / RFU PRF1 (11729649_at) / Fold change /veh PRF1 (11729649_at) / RFU, ZNF638 /// ZNF638-IT1 / Fold change vs veh, ZNF638 /// ZNF638-IT1 / RFU, PANK3 / Fold change vs veh, PANK3 / RFU, SH3YL1 / Fold change vs veh, SH3YL1 / RFU, ZEB2 / Fold change vs veh, ZEB2 / RFU, NRIP1 / Fold change vs veh, NRIP1 / RFU, PTTG1IP / Fold change vs veh, PTTG1IP / RFU, CAPN2 / Fold change vs veh, CAPN2 / RFU, MED14 / Fold change vs veh, MED14 / RFU, SNORA58 / Fold change vs veh, SNORA58 / RFU, C1orf63 / Fold change vs veh, C1orf63 / RFU, LRRFIP1 / Fold change vs veh, LRRFIP1 / RFU, NDUFAF7 / Fold change vs veh, NDUFAF7 / RFU, SLC12A2 / Fold change vs veh, SLC12A2 / RFU, IBTK / Fold change vs veh, IBTK / RFU, ESF1 / Fold change vs veh, ESF1 / Fold change vs veh, TMEM50B / RFU, TAOK1 / Fold change vs veh, TAOK1 / RFU, ACBD3 / Fold change vs veh, ACBD3 / RFU, TMA16 / Fold change vs veh, TMA16 / RFU, RWDD3 / Fold change vs veh, RWDD3 / RFU, BCAT1 / Fold change vs veh, BCAT1 / RFU, EDEM3 / Fold change vs veh, EDEM3 / RFU, TMEM33 / Fold change vs veh, TMEM33 / RFU, WDR75 / Fold change vs veh, WDR75 / RFU, AHCTF1 / Fold change vs veh, AHCTF1 / RFU, TFRC / Fold change vs veh, TFRC / RFU, ZDHHC17 / Fold change vs veh, ZDHHC17 / RFU, NOM1 / Fold change vs veh, NOM1 / RFU, ARL8B / Fold change vs veh, ARL8B / RFU, ZBTB11 / Fold change vs veh, ZBTB11 / RFU, TAMM41 / Fold change vs veh, TAMM41 / RFU, KIAA1704 /// LOC100996395 / Fold change vs veh, KIAA1704 /// LOC100996395 / RFU, ING1 / Fold change vs veh, ING1 / RFU, TRMT61B / Fold change vs veh, TRMT61B / RFU, FUBP3 / Fold change vs veh, FUBP3 / RFU, TP53 / Fold change vs veh, TP53 / RFU, TNKS2 / Fold change vs veh, TNKS2 / RFU, ZFP14 / Fold change vs veh, ZFP14 / RFU, ACTR2 / Fold change vs veh, ACTR2 / RFU, PPP3R1 / Fold change vs veh, PPP3R1 / RFU, PIK3R1 / Fold change vs veh, PIK3R1 / RFU, HNRNPA1 / Fold change vs veh, HNRNPA1 / RFU, RNF170 / Fold change vs veh, RNF170 / RFU, ZNF28 / Fold change vs veh, ZNF28 / RFU, RNGTT / Fold change vs veh, RNGTT / RFU, OGT / Fold change vs veh, OGT / RFU, BRD1 / Fold change vs veh, BRD1 / RFU, MARS / Fold change vs veh, MARS / RFU, ZNF655 / Fold change vs veh, ZNF655 / RFU, FAHD1 / Fold change vs veh, FAHD1 / RFU, BDP1 / Fold change vs veh, BDP1 / RFU, LRRCC1 / Fold change vs veh, LRRCC1 / RFU, ARID1A / Fold change vs veh, ARID1A / RFU, ZNF146 / Fold change vs veh, ZNF146 / RFU, ZNF330 / Fold change vs veh, ZNF330 / RFU, GPN3 / Fold change vs veh, GPN3 / RFU, C9orf123 / Fold change vs veh, C9orf123 / RFU, N4BP2L2 / Fold change vs veh, N4BP2L2 / RFU, ARFIP1 / Fold change vs veh, ARFIP1 / RFU, FAM179B / Fold change vs veh, FAM179B / RFU, BCL10 / Fold change vs veh, BCL10 / RFU, UHRF1BP1L / Fold change vs veh, UHRF1BP1L / RFU, BET1 / Fold change vs veh, BET1 / RFU, CNOT2 / Fold change vs veh, CNOT2 / RFU, ZNF268 / Fold change vs veh, ZNF268 / Fold change vs veh, ZNF507 / RFU, DGCR2 / Fold change vs veh, DGCR2 / RFU, WDSUB1 / Fold change vs veh, WDSUB1 / Fold change vs veh, HSP90B1 /// MIR3652 / RFU, ADSS / Fold change vs veh, ADSS / RFU, GK / Fold change vs veh, GK / RFU, ZNF148 / Fold change vs veh, ZNF148 / RFU, TAF9 / Fold change vs veh, TAF9 / RFU, SLC1A5 / Fold change vs veh, SLC1A5 / RFU, SLMO2 / Fold change vs veh, SLMO2 / RFU, ABCC4 / Fold change vs veh, ABCC4 / RFU, LOC101060439 /// RAP1B / Fold change vs veh, LOC101060439 /// RAP1B / RFU, RFX7 / Fold change vs veh, RFX7 / RFU, GTPBP10 / Fold change vs veh, GTPBP10 / RFU, CNEP1R1 / Fold change vs veh, CNEP1R1 / RFU, BIVM-ERCC5 /// ERCC5 / Fold change vs veh, BIVM-ERCC5 /// ERCC5 / RFU, ILF3 / Fold change vs veh, ILF3 / RFU 11762660_at / Fold change /veh 11762660_at / RFU VCAN (11757783_s_at) / Fold change /veh VCAN (11757783_s_at) / RFU DDX43 (11728927_at) / Fold change /veh DDX43 (11728927_at) / RFU KRT8 (11758188_x_at) / Fold change /veh KRT8 (11758188_x_at) / RFU NKD1 (11759106_at) / Fold change /veh NKD1 (11759106_at) / RFU SRD5A1 (11742802_a_at) / Fold change /veh SRD5A1 (11742802_a_at) / RFU TPSAB1 /// TPSB2 (11721975_s_at) / Fold change /veh TPSAB1 /// TPSB2 (11721975_s_at) / RFU GSTM3 (11746129_a_at) / Fold change /veh GSTM3 (11746129_a_at) / RFU IL23R (11737362_x_at) / Fold change /veh IL23R (11737362_x_at) / RFU TMEM51 (11727254_a_at) / Fold change /veh TMEM51 (11727254_a_at) / RFU PIWIL2 (11732686_x_at) / Fold change /veh PIWIL2 (11732686_x_at) / RFU ORM1 (11744905_x_at) / Fold change /veh ORM1 (11744905_x_at) / RFU CCDC152 (11743942_at) / Fold change /veh CCDC152 (11743942_at) / RFU ECM1 (11717891_a_at) / Fold change /veh ECM1 (11717891_a_at) / RFU IL23R (11748794_a_at) / Fold change /veh IL23R (11748794_a_at) / RFU TNFAIP8L3 (11732012_x_at) / Fold change /veh TNFAIP8L3 (11732012_x_at) / RFU MBOAT4 (11741988_at) / Fold change /veh MBOAT4 (11741988_at) / RFU 11764193_at / Fold change /veh 11764193_at / RFU TMEM53 (11763286_at) / Fold change /veh TMEM53 (11763286_at) / RFU MAGEB2 (11727129_at) / Fold change /veh MAGEB2 (11727129_at) / RFU TMEM200A (11744735_a_at) / Fold change /veh TMEM200A (11744735_a_at) / RFU CCDC152 (11751479_a_at) / Fold change /veh CCDC152 (11751479_a_at) / RFU FAM211A (11726209_a_at) / Fold change /veh FAM211A (11726209_a_at) / RFU RGS16 (11746705_a_at) / Fold change /veh RGS16 (11746705_a_at) / RFU VCAN (11755009_s_at) / Fold change /veh VCAN (11755009_s_at) / RFU RHOB (11743442_s_at) / Fold change /veh RHOB (11743442_s_at) / RFU RGS16 (11720943_a_at) / Fold change /veh RGS16 (11720943_a_at) / RFU RGS16 (11720944_at) / Fold change /veh RGS16 (11720944_at) / RFU, VPS4B / Fold change vs veh, VPS4B / RFU, CREB1 / Fold change vs veh, CREB1 / RFU, DNAJC13 / Fold change vs veh, DNAJC13 / RFU, GNAQ / Fold change vs veh, GNAQ / RFU, CDK5R1 / Fold change vs veh, CDK5R1 / RFU, ZRANB3 / Fold change vs veh, ZRANB3 / RFU, CUL4A / Fold change vs veh, CUL4A / RFU, CCNY / Fold change vs veh, CCNY / RFU, UFL1 / Fold change vs veh, UFL1 / RFU, COG3 / Fold change vs veh, COG3 / RFU, DIAPH2 / Fold change vs veh, DIAPH2 / RFU, SKA2 / Fold change vs veh, SKA2 / RFU, AFF3 / Fold change vs veh, AFF3 / RFU, LMF1 / Fold change vs veh, LMF1 / RFU, IPO11 / Fold change vs veh, IPO11 / RFU, DFFB / Fold change vs veh, DFFB / RFU, FOXP1 / Fold change vs veh, FOXP1 / RFU, CARD8 / Fold change vs veh, CARD8 / RFU, STRN3 / Fold change vs veh, STRN3 / RFU, ADK / Fold change vs veh, ADK / RFU, RASSF2 / Fold change vs veh, RASSF2 / RFU, WIPF1 / Fold change vs veh, WIPF1 / RFU, LARP1B / Fold change vs veh, LARP1B / RFU, RASA1 / Fold change vs veh, RASA1 / RFU, RB1 / Fold change vs veh, RB1 / RFU, PPFIA1 / Fold change vs veh, PPFIA1 / RFU, MAT2A / Fold change vs veh, MAT2A / RFU, CCT5 / Fold change vs veh, CCT5 / RFU, WDR92 / Fold change vs veh, WDR92 / RFU, CUX1 / Fold change vs veh, CUX1 / RFU, TTC7A / Fold change vs veh, TTC7A / RFU, TMEM135 / Fold change vs veh, TMEM135 / RFU, DEPTOR / Fold change vs veh, DEPTOR / RFU, CPM / Fold change vs veh, CPM / RFU, DNAJB6 / Fold change vs veh, DNAJB6 / RFU, CACNA2D3 / Fold change vs veh, CACNA2D3 / RFU, DTX4 / Fold change vs veh, DTX4 / RFU, TFCP2 / Fold change vs veh, TFCP2 / RFU, GMCL1 /// GMCL1P1 / Fold change vs veh, GMCL1 /// GMCL1P1 / RFU, AEBP2 / Fold change vs veh, AEBP2 / RFU, SNHG1 /// SNORD22 /// SNORD25 /// SNORD26 /// SNORD27 /// SNORD28 /// SNORD29 /// SNORD31 / Fold change vs veh, SNHG1 /// SNORD22 /// SNORD25 /// SNORD26 /// SNORD27 /// SNORD28 /// SNORD29 /// SNORD31 / Fold change (Aza/veh), C12orf56 (ProbeSet 11735607_a_at) / Fold change (ACY-1035/veh), C12orf56 (ProbeSet 11735607_a_at) / Fold change (Aza/veh), FGFR1OP (ProbeSet 11751329_s_at) / Fold change (ACY-1035/veh), FGFR1OP (ProbeSet 11751329_s_at) / Fold change (Aza/veh), VPS36 (ProbeSet 11739960_a_at) / Fold change (ACY-1035/veh), VPS36 (ProbeSet 11739960_a_at) / RFU SYPL1 (11715823_x_at) / Fold change /veh SYPL1 (11715823_x_at) / RFU IGFBP7 (11715501_s_at) / Fold change /veh IGFBP7 (11715501_s_at) / RFU REEP3 (11722064_at) / Fold change /veh REEP3 (11722064_at) / RFU IGLL1 (11728026_x_at) / Fold change /veh IGLL1 (11728026_x_at): dose or concentration left out as unconfirmed
# Details: MV-4-11 cells, 48 hours
smiles,measurement,value
Nc1ccc(-c2cccs2)cc1NC(=O)c1ccc2c(c1)cc(C1CC1)n2CCN1CCOCC1 [ACY-1035],Fold change /veh ECM1 (11717891_a_at),0.95

# Source: article PMC5218480 (PLoS ONE, 2017)
